Experimental data reported in patent US20200325116A1, “SOLID FORMS OF A PLASMA KALLIKREIN INHIBITOR AND SALTS THEREOF” (KALVISTA PHARMACEUTICALS LIMITED, priority 2017, published 2020).

Tests used:
[1] = Pharmacokinetics after a single oral dose in rats; assay type: in vivo; conditions: male, Sprague-Dawley, rat, 10% DMSO/10% cremophor/80% SWFI, plasma
Experimental: Pharmacokinetic studies of the compounds in Table 4 were performed to assess the pharmacokinetics following a single oral dose in male Sprague-Dawley rats. […] Following dosing, blood samples were collected over a period of […]. Sample times were 5, 15 and 30 minutes then 1, 2, 4, 6, 8 and 12 hours. Following collection, blood samples were centrifuged and the plasma fraction analysed for concentration of test compound by LCMS.

Human Factor XIIa = target: T1, Human Factor XIIa (Homo sapiens, UniProt P00748); experiment: Determination of the IC50 for FXIIa; assay type: biochemical; conditions: 25° C., substrate H-DPro-Phe-Arg-AFC
T1 construct: purchased Enzyme Research Laboratories
T1 sequence (P00748 373-615 limits assumed, other chains not shown): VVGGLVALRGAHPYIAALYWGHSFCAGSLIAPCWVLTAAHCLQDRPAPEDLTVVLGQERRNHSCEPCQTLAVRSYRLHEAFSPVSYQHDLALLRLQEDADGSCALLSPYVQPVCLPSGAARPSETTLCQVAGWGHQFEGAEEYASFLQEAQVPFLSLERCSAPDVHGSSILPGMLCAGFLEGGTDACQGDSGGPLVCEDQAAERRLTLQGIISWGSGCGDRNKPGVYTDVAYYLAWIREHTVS
Experimental: Factor XIIa inhibitory activity in vitro was determined using standard published methods (see e.g. Shori et al., Biochem. Pharmacol., 1992, 43, 1209; Baeriswyl et al., ACS Chem. Biol., 2015, 10 (8) 1861; Bouckaert et al., European Journal of Medicinal Chemistry 110 (2016) 181). Human Factor XIIa (Enzyme Research Laboratories) was incubated at 25° C. with the fluorogenic substrate H-DPro-Phe-Arg-AFC and various concentrations of the test compound. Residual enzyme activity (initial rate of reaction) was determined by measuring the […] and the IC50 value for the test compound was determined.

Human KLK1 = target: T2, Human KLK1 (Homo sapiens, UniProt P06870); experiment: Determination of the IC50 for KLK1; assay type: biochemical; conditions: 25° C., substrate H-DVal-Leu-Arg-AFC
T2 construct: purchased Callbiochem
T2 sequence (P06870 25-262): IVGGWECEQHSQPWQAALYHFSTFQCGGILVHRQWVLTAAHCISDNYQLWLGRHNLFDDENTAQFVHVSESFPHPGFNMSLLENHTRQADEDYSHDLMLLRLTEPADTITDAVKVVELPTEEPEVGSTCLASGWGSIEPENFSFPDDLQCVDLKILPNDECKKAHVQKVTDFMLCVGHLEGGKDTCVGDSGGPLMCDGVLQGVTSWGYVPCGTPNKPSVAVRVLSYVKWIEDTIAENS
Experimental: KLK1 inhibitory activity in vitro was determined using standard published methods (see e.g. Johansen et al., Int. J. Tiss. Reac. 1986, 8, 185; Shori et al., Biochem. Pharmacol., 1992, 43, 1209; Stürzebecher et al., Biol. Chem. Hoppe-Seyler, 1992, 373, 1025). Human KLK1 (Callbiochem) was incubated at 25° C. with the fluorogenic substrate H-DVal-Leu-Arg-AFC and various concentrations of the test compound. Residual enzyme activity (initial rate of reaction) was determined by measuring the change in optical absorbance at 410 nm and the IC50 value for the test compound was determined.

Human FXIa = target: T3, Human FXIa (Homo sapiens, UniProt P03951); experiment: Determination of the % inhibition / IC50 for FXIa; assay type: biochemical; conditions: 25° C., substrate Z-Gly-Pro-Arg-AFC
T3 construct: purchased Enzyme Research Laboratories
T3 sequence (P03951 388-625 limits assumed): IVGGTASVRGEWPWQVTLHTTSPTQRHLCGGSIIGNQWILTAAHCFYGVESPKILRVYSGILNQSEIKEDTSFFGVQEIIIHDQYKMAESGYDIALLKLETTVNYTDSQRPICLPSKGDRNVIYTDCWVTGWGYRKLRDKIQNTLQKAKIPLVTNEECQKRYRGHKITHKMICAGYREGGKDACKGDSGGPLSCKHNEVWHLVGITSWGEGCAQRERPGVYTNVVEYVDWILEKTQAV
T3 sequence (P03951 19-387 partner limits assumed): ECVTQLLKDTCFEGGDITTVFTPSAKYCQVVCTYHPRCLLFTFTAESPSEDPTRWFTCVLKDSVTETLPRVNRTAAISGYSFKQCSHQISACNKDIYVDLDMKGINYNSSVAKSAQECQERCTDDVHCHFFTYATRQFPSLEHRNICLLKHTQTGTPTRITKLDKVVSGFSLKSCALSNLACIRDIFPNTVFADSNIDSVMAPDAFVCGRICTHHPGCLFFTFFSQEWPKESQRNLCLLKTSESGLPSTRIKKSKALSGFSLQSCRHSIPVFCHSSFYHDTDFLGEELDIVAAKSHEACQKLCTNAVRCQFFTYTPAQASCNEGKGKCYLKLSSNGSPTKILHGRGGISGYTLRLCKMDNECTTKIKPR
Experimental: Residual enzyme activity (initial rate of reaction) was determined by measuring the change in optical absorbance at 410 nm and the IC50 value for the test compound was determined.

rats = conditions: systemic administration; cited from earlier work
blood = conditions: contacting blood with the substance; cited from earlier work
[2] = system: intrinsic pathway of coagulation; conditions: in vitro; cited from earlier work
postoperative bleeding = conditions: in vivo; cited from earlier work
Caco-2 monolayers = experiment: In vitro permeability, Caco-2 model for oral absorption; assay type: in vitro ADME
Experimental: (§1) In vitro permeability was determined using the Caco-2 model for oral absorption. The methodology was adapted from standard published methods (Wang Z, Hop C. E., Leung K. H. and Pang J. (2000) J Mass Spectrom 35(1); 71-76). […] For the assay, 50 μM test compound is added to the apical side of the inserts and incubated for 1 hour at 37° C. on a shaking platform (120 rpm). Apical to basolateral transport was determined by measuring the test article in both compartments by LCMS following the 1 hour incubation. The integrity of the Caco-2 monolayers was confirmed by two methods, (i) comparison of pre- and post-experiment transepithelial electrical resistance (TEER) and, (ii) assessment of Lucifer Yellow flux.

[3] = as above; assay type: in vitro ADME; conditions: human, Caco-2; 50 μM, apical to basolateral, 1 hour at 37° C.
Experimental: as §1

trypsin = experiment: Enzyme selectivity, trypsin; assay type: biochemical, human; conditions: substrate at Km concentration
Experimental: Human serine protease enzymes plasmin, thrombin and trypsin were assayed for enzymatic activity using an appropriate fluorogenic substrate. Protease activity was measured by monitoring the accumulation of liberated fluorescence from the substrate over 5 minutes. The linear rate of fluorescence increase per minute was expressed as percentage (%) activity. The Km for the cleavage of each substrate was determined by standard transformation of the Michaelis-Menten equation.

[4] = system: LPS-induced disseminated intravascular coagulation; conditions: cited from earlier work

COCc1nn(Cc2ccc(Cn3ccccc3=O)cc2)cc1C(=O)NCc1nccc(OC)c1F [Example 41 of WO2016/083820, N-[(3-fluoro-4-methoxypyridin-2-yl)methyl]-3-(methoxymethyl)-1-({4-[(2-oxopyridin-1-yl)methyl]phenyl}methyl)pyrazole-4-carboxamide] showed a Cmax ([1]; po 10.5 mg/kg) of 1530 ng/mL, a Tmax ([1]; po 10.5 mg/kg) of 3 h and an IC50 (Human Factor XIIa) of over 40 µM. The IC50 (Human KLK1) was over 40 µM and the IC50 (Human FXIa) was over 40 µM.
In the case of N=C(N)c1ccc(CNC(=O)c2cnn(Cc3ccccc3)c2)cc1 [ASP-440], the hematoma expansion (rats) is listed as “reduced”.
For Ecallantide, the “activated clotting time (ACT)” value (blood) is listed as “increase” and the “contact activated induced coagulation” value [2] is listed as “delay”.
In the case of aprotinin, the postoperative bleeding (postoperative bleeding) is listed as “decrease”.
For COc1ccnc(CNC(=O)c2cn(Cc3ccc(Cn4ccccc4=O)cc3)nc2C(F)(F)F)c1F [Compound of Formula A, N-[(3-fluoro-4-methoxypyridin-2-yl)methyl]-1-({4-[(2-oxopyridin-1-yl)methyl]phenyl}methyl)-3-(trifluoromethyl)pyrazole-4-carboxamide], the Cmax ([1]; po 2.2 mg/kg) was 1800 ng/mL, the Tmax ([1]; po 2.2 mg/kg) was 0.5 h and the “pharmacokinetic properties, in particular in vitro permeability (in words)” value (Caco-2 monolayers) was “surprisingly good”. The Papp A→B at 1 h, 50 μM [3] was 17 ×10⁻⁶ cm/s and the IC50 (trypsin) was over 40 µM.
In the case of Cl.NCC1CCC(C(=O)N[C@@H](Cc2ccccc2)C(=O)Nc2ccc(CC(=O)O)cc2)CC1 (stereo partly drawn) [PKSI-527], the “decrease in platelet count and fibrinogen level, increase in FDP level” value [4] is given as “significantly suppressed”.
